The values below come from US4294958A, “Water-soluble salts of trimethylammonium derivatives of polyene macrolide antibiotics and the preparation thereof” (Politechnika Gdanska, priority 1978, dated 1981).

In brackets after ≈: the same amount, converted by molar mass. Like-named read-outs stand apart in the source and are kept apart here.

Format in all cases: cell-based
The subject of data set [1] is Saccharomyces cerevisiae cells. As to the kind of experiment: antifungal activity: inhibition of growth of Saccharomyces cerevisiae in liquid standard medium. As to the method: IC50 means the concentration of the substance causing 50% inhibitio
of the growth of Saccharomyces cerevisiae cells in liquid standard medium
determined spectrophotometrically at λ = 600 nm after 24 hours

A short description of data set [2]: haemolytic activity (hemoglobin, determined spectrophotometrically). From the text:
(§1) EH50 means the concentration of the substance causing in conditions
(§2) 50% of hemoglobin determined spectrophotometrically at λ = 550 nm.

Data set [3] relates to hemoglobin. Described as above.
Excerpt: as §1, §2

[4] abbreviates: in vitro haemolysis, 50% of hemoglobin, λ = 550 nm, read-out: EH50 (the source's name).
[5] abbreviates: 50% inhibition of growth of Saccharomyces cerevisiae, liquid standard medium, λ = 600 nm, 24 hours, 28° C., read-out: IC50.
Where [6] appears, read: 50% inhibition of growth of Saccharomyces cerevisiae, liquid standard medium, λ = 600 nm, 24 hours, 28° C.
Setting [7] is: in vitro haemolysis, 50% of hemoglobin, λ = 550 nm.

For the molecule `C[C@@H]1[C@H](O)[C@@H](C)/C=C/C=C/C=C/C=C/C=C/C=C/C=C/[C@H](O[C@@H]2O[C@H](C)[C@@H](O)[C@H](N)[C@@H]2O)C[C@@H]2O[C@](O)(C[C@@H](O)C[C@@H](O)[C@H](O)CC[C@@H](O)C[C@@H](O)CC(=O)O[C@H]1C)C[C@H](O)[C@H]2C(=O)O` [Amphotericin B, amphotericin B], the IC50 in data set [1] (Saccharomyces cerevisiae, 24 h) was 0.03 µg/mL (≈ 0.0325 µM). The HC50 in data set [2] (setting [4]) amounted to 5 µg/mL.
Regarding `COc1cc2c(c3oc(-c4ccccc4)cc(=O)c13)C=CC(C)(C)O2` [Candidin, candidin], in data set [1] (setting [5]), the IC50 is 0.054 µg/mL (≈ 0.161 µM). For the same molecule, the HC50 in data set [2] (setting [4]) was determined as 20 µg/mL.
Turning to `COC(=O)[C@H]1[C@@H]2C[C@@H](O[C@@H]3O[C@H](C)[C@@H](O)[C@H]([N+](C)(C)C)[C@@H]3O)/C=C/C=C/C=C/C=C/C=C/C=C/C=C/[C@H](C)[C@@H](O)[C@@H](C)[C@H](C)OC(=O)C[C@H](O)C[C@H](O)CC[C@@H](O)[C@H](O)C[C@H](O)C[C@](O)(C[C@@H]1O)O2` [DMS-Amphotericin B, N,N,N-trimethylamphotericin B methyl ester], the IC50 in data set [1] (setting [5]) was determined as 0.08 µg/mL. Moreover, in data set [2] (setting [4]), the HC50 was determined as 5 µg/mL.
On to `C[C@@H]1[C@H](O)[C@@H](C)/C=C/C=C/C=C/C=C/C=C/C=C/C=C/[C@H](O[C@@H]2O[C@H](C)[C@@H](O)[C@H](N)[C@@H]2O)C[C@@H]2O[C@](O)(C[C@@H](O)[C@H](O)CC[C@@H](O)CC(=O)C[C@@H](O)CC(=O)O[C@H]1C)C[C@H](O)[C@H]2C(=O)O` [Mycoheptin, mycoheptin], for which the IC50 in data set [1] (setting [6]) was 0.05 µg/mL (≈ 0.0542 µM). Moreover, the EH50 in data set [3] (setting [7]) was 15 µg/mL.
As to `C[C@@H]1[C@H](O)[C@@H](C)/C=C/C=C/CC/C=C/C=C/C=C/C=C/C(O[C@H]2O[C@H](C)[C@@H](O)[C@H](N)[C@@H]2O)CC2O[C@](O)(CC(O)C(O)CCC(O)CC(O)CC(O)CC(=O)O[C@H]1C)CC(O)C2C(=O)O` (stereo partly drawn) [Nystatin, nystatin], the 50% inhibitory concentration (IC50) in data set [1] (setting [6]) was found to be 0.1 µg/mL (≈ 0.108 µM). Besides, in data set [3] (setting [7]), the EH50 stood at 50 µg/mL.
Consider `C[C@@H]1C/C=C/C=C/C=C/C=C/[C@H](O[C@@H]2O[C@H](C)[C@@H](O)[C@H](N)[C@@H]2O)C[C@@H]2O[C@](O)(C[C@@H](O)C[C@H]3O[C@@H]3/C=C/C(=O)O1)C[C@H](O)[C@H]2C(=O)O` [Pimaricin, pimaricin], for which, in data set [1] (setting [5]), the IC50 is 1 µg/mL (≈ 1.5 µM). In data set [2], this molecule returned an HC50 of 100 µg/mL.
In the case of `CCC[C@@H]1C/C=C/C=C/C=C/C=C/[C@H](O[C@@H]2O[C@H](C)[C@@H](O)[C@H](N)[C@@H]2O)C[C@@H]2O[C@](O)(C[C@@H](O)CCCC(=O)C[C@@H](O)[C@H](CC)C(=O)O1)C[C@H](O)[C@H]2C(=O)O` [Rimocidin, rimocidin], the IC50 in data set [1] (setting [6]) amounted to 1.5 µg/mL (≈ 1.95 µM). In data set [3] (setting [7]), the EH50 worked out at 30 µg/mL.
With “N,N,N-dimethyl-mycoheptin methyl ester [DMS-Mycoheptin]”, the IC50 in data set [1] (setting [6]) came out at 0.2 µg/mL. The molecule also displayed an EH50 in data set [3] (setting [7]) of 65 µg/mL.
For “N,N,N-trimethylcandidin methyl ester [DMS-Candidin]” the same measures were 0.15 µg/mL and 70 µg/mL.
In turn, “N,N,N-trimethylnystatin methyl ester [DMS-Nystatin]” showed a half-inhibitory concentration (IC50) in data set [1] (setting [6]) of 0.25 µg/mL. Also, the EH50 in data set [3] (setting [7]) was found to be 100 µg/mL.
For the molecule “N,N,N-trimethylpolifungin methyl ester [DMS-Polifungin]”, in data set [1] (setting [6]), the IC50 is 0.15 µg/mL. This molecule gave an EH50 in data set [3] of 120 µg/mL.
In data set [1] (setting [6]), “N,N,N-trimethylrimocidin methyl ester [DMS-Rimocidin]” returned an IC50 of 2.5 µg/mL. Besides, the EH50 in data set [3] (setting [7]) is 50 µg/mL.
The corresponding values for aureofacin are 0.005 µg/mL and 0.35 µg/mL.
For candicidin the same measures were 0.005 µg/mL and 2.5 µg/mL.
For levorin, the IC50 in data set [1] (setting [6]) is 0.007 µg/mL. Also, the EH50 in data set [3] (setting [7]) came out at 2.5 µg/mL.
Molecule perimycin displayed an IC50 in data set [1] (setting [6]) of 0.002 µg/mL. In data set [3] (setting [7]), this molecule registered an EH50 of 5 µg/mL.
In data set [1] (setting [6]), polyfungin [Polifungin] showed an IC50 of 0.08 µg/mL. Moreover, the EH50 in data set [3] turned out to be 20 µg/mL.
The molecule trichomycin yielded an IC50 in data set [1] (setting [6]) of 0.005 µg/mL. The EH50 in data set [3] (setting [7]) was determined as 3 µg/mL.

For orientation: IC50 means the concentration that gives 50% inhibition.
